# Counter-ions that a name gives are not always drawn. Like-named read-outs stand apart in the source and are kept apart here.
# Target: T1, His6-AspH315–758 (human aspartate/asparagine-β-hydroxylase, AspH) (Homo sapiens, UniProt Q12797)
# T1 construct: N-Terminally His6-tagged human AspH315–758 (His6-AspH315–758) was produced in E. coli BL21 (DE3) cells; made in house; host or cells: E. coli BL21 (DE3), pET-28a(+) vector
# T1 sequence (Q12797 315-758): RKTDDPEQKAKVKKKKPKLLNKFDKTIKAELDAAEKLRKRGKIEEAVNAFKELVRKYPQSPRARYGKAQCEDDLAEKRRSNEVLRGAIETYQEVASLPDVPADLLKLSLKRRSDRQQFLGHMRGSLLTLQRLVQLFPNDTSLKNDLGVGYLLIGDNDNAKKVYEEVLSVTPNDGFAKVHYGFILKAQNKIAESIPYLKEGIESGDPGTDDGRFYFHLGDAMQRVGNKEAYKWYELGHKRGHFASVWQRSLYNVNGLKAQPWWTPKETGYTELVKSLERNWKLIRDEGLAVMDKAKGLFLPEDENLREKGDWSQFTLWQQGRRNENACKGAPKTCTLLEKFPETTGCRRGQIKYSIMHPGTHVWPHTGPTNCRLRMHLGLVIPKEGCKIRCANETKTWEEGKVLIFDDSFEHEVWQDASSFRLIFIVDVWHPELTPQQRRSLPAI
# Assay: SPE-MS AspH inhibition assay (LOPAC screen at fixed 20 μM and IC50 dose-response), hydroxylation of cyclic peptide hFX-CP101–119
# Type: biochemical
# Conditions: for Plate 3 (% conversion): LOPAC compound at 20uM, conversion of substrate peptide
# [1] = LOPAC compound at fixed 20 uM, plate 1, normalised to DMSO and 2,4-PDCA controls
# [2] = LOPAC compound at fixed 20 uM, substrate conversion, plate 1
# [3] = LOPAC Plate 4, compound at 20 uM, substrate conversion
# [4] = LOPAC Plate 4, compound at 20 uM, read-out: % inhibition
# [5] = plate 5 (Pfitzer), test compounds at fixed 20 μM
# [6] = plate 5 (Pfitzer), test compounds at fixed 20 μM, mean conversion DMSO 32.88
# [7] = LOPAC Plate 4, compound at 20 uM
smiles,measurement,setting,value
CCN1/C(=C/C(C)=O)Sc2ccc(OC)cc21 [TG003],Plate 3 (% conversion),,40.97%
Cl.O=c1[nH]oc2c1CCNC2 [THIP hydrochloride],% conversion,,36.67%
same,% inhibition,20 µM,-0.58%
CCN(CC)CCCCCCCCOC(=O)c1cc(OC)c(OC)c(OC)c1.Cl [TMB-8 hydrochloride],Plate 1 (% inhibition),[1],-14.63%
same,Plate 1 (% conversion),[2],40.78%
CCCCCCC(=O)OC1CC(C)(C)NC(C)(C)C1.Cl [TMPH hydrochloride],Plate 3 (% conversion),,40.82%
CP(=O)(O)C1=CCNCC1 [TPMPA],% conversion,,27.88%
C/C(=C\c1ccc(C(=O)O)cc1)c1ccc2c(c1)C(C)(C)CCC2(C)C [TTNPB],% conversion,[3],26.33%
CC/C(=C(\c1ccccc1)c1ccc(OCCN(C)C)cc1)c1ccccc1 [Tamoxifen citrate],% conversion,[3],11.73%
same,inhibition at 20 µM,[4],72.5%
NCCS(=O)(=O)O [Taurine],% conversion,[3],39.69%
same,inhibition at 20 µM,[4],-9.43%
CCOC(=O)c1ccc(C#Cc2ccc3c(c2)C(C)(C)CCS3)nc1 [Tazarotene],% conversion,[3],39.09%
O=c1[nH]c(=O)n(C2CCCO2)cc1F (centres unmarked) [Tegafur],% conversion,[3],31.54%
Cc1scc2c1N(C(=O)CN1CCN(C)CC1)c1ccccc1NC2=O [Telenzepine dihydrochloride],% conversion,[3],38.43%
same,inhibition at 20 µM,[4],-5.75%
CO[C@H]1C[C@@H]2CC[C@@H](C)[C@@](O)(O2)C(=O)C(=O)N2CCCC[C@H]2C(=O)O[C@H]([C@H](C)C[C@@H]2CC[C@@H](OC(=O)C(C)(CO)CO)[C@H](OC)C2)CC(=O)[C@H](C)/C=C(\C)[C@@H](O)[C@@H](OC)C(=O)[C@H](C)C[C@H](C)/C=C/C=C/C=C/1C [Temsirolimus],Plate 5 (% inhibition),[5],52.39%
same,Plate 5 (% conversion),[6],18.48%
CC(C)(C)NCC(O)c1cc(O)cc(O)c1.CC(C)(C)NCC(O)c1cc(O)cc(O)c1.O=S(=O)(O)O (centres unmarked) [Terbutaline hemisulfate],% inhibition,[7],5.48%
same,% conversion,[3],34.60%
CC(C)(C)c1ccc(C(O)CCCN2CCC(C(O)(c3ccccc3)c3ccccc3)CC2)cc1 (centres unmarked) [Terfenadine],% conversion,[3],45.15%
same,inhibition at 20 µM,[4],-25.4%
COc1cc2c(cc1OC)C1CC(=O)C(CC(C)C)CN1CC2 (centres unmarked) [Tetrabenazine],% conversion,[3],27.36%
CCCCNc1ccc(C(=O)OCCN(C)C)cc1 [Tetracaine hydrochloride],% conversion,[3],40.45%
same,inhibition at 20 µM,[4],-11.7%
CCCCCCCCCCCCCCSCC(=O)O [Tetradecylthioacetic acid],% conversion,[3],26.50%
same,inhibition at 20 µM,[4],29.2%
CC[N+](CC)(CC)CC [Tetraethylammonium chloride],% conversion,,26.96%
CCN(CC)C(=S)SSC(=S)N(CC)CC [Tetraethylthiuram disulfide],% conversion,[3],22.31%
c1ccc2c(c1)CCCC2C1=NCCN1 (centres unmarked) [Tetrahydrozoline hydrochloride],% conversion,[3],39.98%
same,inhibition at 20 µM,[4],-10.3%
CC(C)NP(=O)(NC(C)C)OP(=O)(NC(C)C)NC(C)C [Tetraisopropyl pyrophosphoramide],% conversion,,27.56%
c1ccc(C2CN3CCSC3=N2)cc1 (centres unmarked) [Tetramisole hydrochloride],% conversion,[3],38.57%
C/C=C(/C)C(=O)O[C@H]1C(C)=C2[C@H]([C@@H]1OC(=O)CCCCCCC)[C@@](C)(OC(C)=O)C[C@H](OC(=O)CCC)[C@@]1(O)[C@H]2OC(=O)[C@@]1(C)O [Thapsigargin],% conversion,,31.20%
Cn1cnc2c1c(=O)[nH]c(=O)n2C [Theobromine],% conversion,[3],26.15%
Cn1c(=O)c2[nH]cnc2n(C)c1=O [Theophylline],% conversion,,39.26%
same,inhibition at 20 µM,,-8.17%
NC(=S)c1ccc[n+]([C@@H]2O[C@@H](COP(=O)([O-])OP(=O)(O)OC[C@H]3O[C@@H](n4cnc5c(N)ncnc54)C(OP(=O)([O-])O)[C@H]3O)C(O)C2O)c1.[Na+] (some centres unmarked) [Thio-NADP sodium],% conversion,[3],24.90%
S=C(NC1CCCCC1)N1CCC(c2cnc[nH]2)CC1 [Thioperamide maleate],% conversion,,37.27%
same,inhibition at 20 µM,[4],-2.35%
CSc1ccc2c(c1)N(CCC1CCCCN1C)c1ccccc1S2 (centres unmarked) [Thioridazine hydrochloride],% conversion,[3],43.98%
CCN(CC)CCNC(=O)c1cc(S(C)(=O)=O)ccc1OC [Tiapride hydrochloride],% conversion,[3],37.21%
same,inhibition at 20 µM,[4],-2.16%
"CN(C)c1cc(NC(=O)CNC(C)(C)C)c(O)c2c1C[C@H]1C[C@H]3[C@H](N(C)C)C(O)=C(C(N)=O)C(=O)[C@@]3(O)C(O)=C1C2=O [Tigecycline, tigecycline, reference compound]",IC50,"50 nM His6-AspH315–758, 1.0 μM hFX-CP101–119, 3 μM 2OG, 2 μM Fe(II), 50 mM HEPES pH 7.5, 20 °C, mean ± SD, n = 2 (2,4-PDCA n = 10), read-out: IC50",7.6 ± 1.95 µM
same,inhibition at 20 µM,"AspH activity, fixed compound concentration 20 μM, initial LOPAC screen, 0.5%v/v DMSO, read-out: Inhibition at 20 µM [%]",95.3%
same,Plate 5 (% inhibition),[5],90.85%
same,Plate 5 (% conversion),[6],5.39%
CCCCS(=O)(=O)N[C@@H](Cc1ccc(OCCCCC2CCNCC2)cc1)C(=O)O [Tirofiban hydrochloride monohydrate],% conversion,[3],29.35%
Clc1ccc2nsnc2c1NC1=NCCN1 [Tizanidine hydrochloride],% conversion,[3],37.51%
Cc1ccc(S(=O)(=O)NC(=O)NN2CCCCCC2)cc1 [Tolazamide],% conversion,[3],36.66%
CCCCNC(=O)NS(=O)(=O)c1ccc(C)cc1 [Tolbutamide],% conversion,[3],37.22%
same,inhibition at 20 µM,[4],-2.2%
Cc1ccc(O)c([C@H](CCN(C(C)C)C(C)C)c2ccccc2)c1 [Tolterodine],Plate 5 (% conversion),,15.18%
same,Plate 5 (% inhibition),,62.09%
CNCC[C@@H](Oc1ccccc1C)c1ccccc1 [Tomoxetine],% conversion,[3],38.97%
same,inhibition at 20 µM,[4],-7.33%
CC[C@@]1(O)C(=O)OCc2c1cc1n(c2=O)Cc2cc3c(CN(C)C)c(O)ccc3nc2-1.Cl.O [Topotecan hydrochloride hydrate],Plate 3 (% conversion),,37.14%
CCOC(=O)N1c2ccc(C(F)(F)F)cc2[C@@H](N(Cc2cc(C(F)(F)F)cc(C(F)(F)F)c2)C(=O)OC)C[C@H]1CC [Torcetrapib],Plate 5 (% inhibition),[5],13.93%
same,Plate 5 (% conversion),[6],31.57%
CCOC(=O)[C@H](CCc1ccccc1)N[C@@H](C)C(=O)N1[C@H](C(=O)O)C[C@H]2CCCC[C@@H]21 [Trandolapril],Plate 3 (% conversion),,36.50%
COc1ccc(/C=C/C(=O)Nc2ccccc2C(=O)O)cc1OC [Tranilast],% conversion,[3],35.26%
N[C@@H]1C[C@H]1c1ccccc1 [Tranylcypromine hydrochloride],% conversion,,34.80%
O=c1n(CCCN2CCN(c3cccc(Cl)c3)CC2)nc2ccccn12 [Trazodone hydrochloride],% conversion,[3],39.67%
same,inhibition at 20 µM,[4],-9.38%
COc1cc2c(cc1OC)-c1c/c(=N\c3c(C)cc(C)cc3C)n(C)c(=O)n1CC2 [Trequinsin hydrochloride],% conversion,[3],28.50%
C[C@]12C=CC(=O)C=C1CC[C@H]1[C@@H]3C[C@@H](O)[C@](O)(C(=O)CO)[C@@]3(C)C[C@H](O)[C@@]12F [Triamcinolone],% conversion,[3],30.89%
Nc1nc(N)c2nc(-c3ccccc3)c(N)nc2n1 [Triamterene],% conversion,[3],36.11%
CN1CCN(CCCN2c3ccccc3Sc3ccc(C(F)(F)F)cc32)CC1 [Trifluoperazine dihydrochloride],inhibition at 20 µM,,-68.5%
O=C(CCCN1CCC(O)(c2cccc(C(F)(F)F)c2)CC1)c1ccc(F)cc1 [Trifluperidol hydrochloride],% conversion,[3],30.59%
CN(C)CCCN1c2ccccc2Sc2ccc(C(F)(F)F)cc21 [Triflupromazine hydrochloride],inhibition at 20 µM,,-23.1%
CC(=O)Oc1cc(C(F)(F)F)ccc1C(=O)O [Triflusal],% conversion,[3],27.02%
OC(CCN1CCCCC1)(c1ccccc1)C1CCCCC1 (centres unmarked) [Trihexyphenidyl hydrochloride],% conversion,[3],39.76%
same,inhibition at 20 µM,[4],-9.65%
COc1cc(Cc2cnc(N)nc2N)cc(OC)c1OC [Trimethoprim],% conversion,[3],37.33%
CC(CN(C)C)CN1c2ccccc2CCc2ccccc21 (centres unmarked) [Trimipramine maleate],% conversion,[3],41.64%
same,inhibition at 20 µM,[4],-15.1%
Cc1ccc(/C(=C\CN2CCCC2)c2ccccn2)cc1.Cl [Triprolidine hydrochloride],% inhibition,[7],-7.68%
same,% conversion,[3],39.09%
N[C@@H]1[C@H]2CN(c3nc4c(cc3F)c(=O)c(C(=O)O)cn4-c3ccc(F)cc3F)C[C@@H]12 [Trovafloxacin mesylate],Plate 1 (% inhibition),[1],-24.51%
same,Plate 1 (% conversion),[2],44.10%
N[C@@H]1[C@H]2CN(c3nc4c(cc3F)c(=O)c(C(=O)O)cn4-c3ccc(F)cc3F)C[C@@H]12 [Trovafloxacin],Plate 5 (% inhibition),[5],-0.64%
same,Plate 5 (% conversion),[6],36.53%
NCCc1c[nH]c2ccccc12 [Tryptamine hydrochloride],Plate 1 (% conversion),,34.54%
same,Plate 1 (% inhibition),,3.95%
CC(C)(C)NCC(O)c1ccccc1Cl (centres unmarked) [Tulobuterol hydrochloride],% conversion,[3],41.18%
same,inhibition at 20 µM,[4],-13.8%

# Source: paper PMC7251097, “Aspartate/asparagine-β-hydroxylase: a high-throughput mass spectrometric assay for discovery of small molecule inhibitors” (Scientific Reports, 2020)
